# Experimental data as given in publication PMC12794274, “Therapeutic potential of Sheng-Xian-Tang in doxorubicin-induced chronic heart failure by regulation of phenylalanine metabolism disruption” (Chinese Medicine, 2026).
# Like-named read-outs stand apart in the source and are kept apart here.
# Columns and labels:
# AML12 cells = test: AML12 cell viability (CCK8); type: cell-based
# Procedure: (§1) Mouse hepatocellular cell lines (AML12), purchased from the Shanghai Cell Bank of Chinese Academy of Sciences (Shanghai, China), were cultured in Dulbecco’s Modified Eagle Medium (DMEM) supplemented with 10% fetal bovine serum (FBS) and 2 mM L-glutamine and 1% pyruvate and maintained at 37 °C in a […], 5% CO2 incubator. Cells were seeded at a density of 5 × 10^5 cells/well in 6-well plates. […] Cells’ survival rate was detected by Cell Counting Kit-8 (CCK8) Reagents (Thermo Scientific, Singapore).
# Rat body weight = type: in vivo; conditions: CHF rats, treatment vs DOX group, experiment I
# Procedure: Experiment I, 48 rats were randomly divided into six groups: (1) the CON group; (2) the DOX group; (3) the DOX + enalapril (ENP, positive control, 1.8 mg/kg) group; (4) the DOX + SXT at low dose group (4 g/kg); (5) the DOX + SXT at middle dose group (8 g/kg); and […] the DOX + SXT at high dose group (16 g/kg). Except those rats in the CON group, the remaining rats received DOX at a 2.5 mg/kg per injection to a cumulative dose of 15 mg/kg. The dose of SXT for the low-dose group was set at 4 g/kg, based on the minimum human clinical daily dose (48.5 g, Table S2) converted to an equivalent rat dose using body surface area normalization (48.5 g/70 kg × 6.3 ≈ 4.4 g/kg, rounded to 4 g/kg). To evaluate a clear dose–response relationship, the medium and high doses were established at 8 g/kg and 16 g/kg, respectively, corresponding to 2 fold and 4 fold the low dose. […] Heart function was monitored by echocardiography analysis at day 39, and the CHF model was considered to be successfully established when the left ventricular ejection fraction (LVEF%) values were reduced to 50%. […]
# DOX-induced CHF rats [1] = test: Serum biochemical parameters (BNP, CK, LDH, ALT, AST) by ELISA kits; type: in vivo, rat
# Procedure: (§2) Serum biochemical parameters including brain natriuretic peptide (BNP), creatine kinase (CK), lactate dehydrogenase (LDH), alanine aminotransferase (ALT), and aspartate aminotransferase (AST) were measured using commercial ELISA kits (Nanjing Jiancheng Bioengineering Institute, Nanjing, China) according to the manufacturer's instructions. Superoxide dismutase (SOD), and malondialdehyde (MDA) levels in liver and heart tissues were measured using assay kits from […] Biotechnology (Changsha, China). Phenylalanine and tyrosine concentrations in the cell were determined using an ELISA kit from Abmart (Shanghai, China).
# [2] = test system: cardiac tissues of DOX-induced CHF rats; test: Heart histopathology (H&E, Masson) and TUNEL apoptosis detection; type: in vivo, rat
# Procedure: Cardiac tissues were fixed in 4% paraformaldehyde, embedded in paraffin, and sectioned at 4–5 μm thickness. Hematoxylin and eosin (H&E) staining was performed to assess histopathological changes, while Masson’s trichrome staining was used to evaluate cardiac fibrosis. Apoptosis in cardiac tissues was detected using a TUNEL assay kit (C1088, Beyotime, Shanghai, China).
# [3] = test system: DOX-induced chronic heart failure (CHF) rat model; test: Echocardiography (LVEF%, LVFS%) in DOX-induced CHF rats; type: in vivo
# Procedure: Experiment I, 48 rats were randomly divided into six groups: (1) the CON group; (2) the DOX group; (3) the DOX + enalapril (ENP, positive control, 1.8 mg/kg) group; (4) the DOX + SXT at low dose group (4 g/kg); (5) the DOX + SXT at middle dose group (8 g/kg); and […] the DOX + SXT at high dose group (16 g/kg). Except those rats in the CON group, the remaining rats received DOX at a 2.5 mg/kg per injection to a cumulative dose of 15 mg/kg. The dose of SXT for the low-dose group was set at 4 g/kg, based on the minimum human clinical daily dose (48.5 g, Table S2) converted to an equivalent rat dose using body surface area normalization (48.5 g/70 kg × 6.3 ≈ 4.4 g/kg, rounded to 4 g/kg). To evaluate a clear dose–response relationship, the medium and high doses were established at 8 g/kg and 16 g/kg, respectively, corresponding to 2 fold and 4 fold the low dose. This gradient dosing strategy is consistent with the Technical Guidelines for Pharmacodynamic Studies of Traditional Chinese Medicine and the Technical Guidelines for General Pharmacology Studies of Traditional Chinese Medicine and Natural Drugs, and is further supported by our previous study on the effective dose range of SXT in a rat model of doxorubicin-induced chronic heart failure. Heart function was monitored by echocardiography analysis at day 39, and the CHF model was considered to be successfully established when the left ventricular ejection fraction (LVEF%) values were reduced to 50%. Urinary samples were collected at five time points (0, 10, 20, 30, and 39 d), while fecal samples were collected before the rats were euthanized. Subsequently, the rats were anesthetized, and blood samples and heart and liver tissues were collected. All bio-samples were stored at − 80 °C until analysis.
# Experiment II was conducted to specifically confirm the exacerbated cardiac abnormality of phenylalanine in the DOX-induced CHF rats. […] Heart function was detected as in the experiment I.
# Echocardiographic (ECG) measurements were performed using M-mode tracings and continuous Doppler with a Vevo 2100 system (Visual Sonics, Toronto, ON, Canada). Rats were anesthetized with isoflurane prior to imaging. Cardiac function indices including left ventricular ejection fraction (LVEF%) and left ventricular fractional shortening (LVFS%) were measured and recorded.
# heart tissues = test: Transmission electron microscopy of heart tissue; type: in vivo, rat; conditions: experiment II; DOX alone, co-treatments vs DOX
# Procedure: Freshly excised heart tissues were immediately fixed in 2.5% glutaraldehyde at 4 °C overnight. After washing with 0.1 M cacodylate trihydrate buffer, samples were post-fixed with 1% osmium tetroxide for 1 h. Tissues were then dehydrated through a graded ethanol series, incubated in acetone, and embedded in epoxy resin. Ultrathin sections were mounted on copper grids and imaged using a Hitachi HT7800 transmission electron microscope (Tokyo, Japan).
# [4] = test system: PAH activity in AML12 cells; type: cell-based; conditions: BH4 10 μM; timosaponin B-II, neomangiferin, anemarrhenasaponin I 5, 10, 20 μM; timosaponin AIII 0.1, 0.2, 0.5 μM
# Procedure: Serum biochemical parameters including brain natriuretic peptide (BNP), creatine kinase (CK), lactate dehydrogenase (LDH), alanine aminotransferase (ALT), and aspartate aminotransferase (AST) were measured using commercial ELISA kits (Nanjing Jiancheng Bioengineering Institute, Nanjing, China) according to the manufacturer’s instructions. Superoxide dismutase (SOD), and malondialdehyde (MDA) levels in liver and heart tissues were measured using assay kits from Aifang Biotechnology (Changsha, China). Phenylalanine and tyrosine concentrations in the cell were determined using an ELISA kit from Abmart (Shanghai, China).
# as §1
# phenylalanine metabolism = test: Phenylalanine and tyrosine levels in rat serum, liver and heart tissues (LC/MS); type: in vivo; conditions: experiment II, DOX + phenylalanine 280 mg/kg, BH4 14 mg/kg or SXT 16 g/kg
# Procedure: Phenylalanine and tyrosine in the different rat bio-samples were analyzed by LC/MS using an Agilent 1290 Ultra high-performance liquid chromatography (UHPLC) and an Agilent 6460 triple-quadrupole tandem mass spectrometer (QQQ-MS) (Agilent Inc, USA). Data were acquired by using an Agilent Zorbax SB-C18 column (3.0 × 150 mm, 5 μm) as described previously.
# [5] = target: Phenylalanine hydroxylase (PAH) protein (Homo sapiens, UniProt P00439); test: Surface Plasmon Resonance (SPR) analysis, Biacore T200; type: binding; conditions: PAH immobilized on CM5 chip, read-out: dissociation constant (Kd)
# Procedure: SPR assays were conducted using a Biacore T200 system (GE Healthcare Life Sciences, USA). Phenylalanine hydroxylase (PAH) protein was immobilized on CM5 sensor chips using an amine-coupling kit (BR100050, GE Healthcare) following standard procedures. […] Samples were injected over reference and PAH-immobilized flow cells at a flow rate of 30 μL/min, with 120 s contact time and 120 s dissociation time. Kinetic parameters were calculated using Biacore T200 evaluation software.
# [6] = test system: phenylalanine hydroxylase (PAH); test: PAH expression in liver and heart (western blotting, immunofluorescence); type: in vivo, rat; conditions: experiment II; DOX vs CON, co-treatments vs DOX
# Procedure: Immunofluorescence staining was performed on tissue sections to detect phenylalanine hydroxylase (PAH), prostaglandin-endoperoxide synthase 2 (PTGS2), and reactive oxygen species (ROS). Primary antibodies against PAH and PTGS2 were used, while ROS was detected using the DCFH-DA probe. Nuclei were counterstained with DAPI. Images were captured using a fluorescence microscope.
# Protein was extracted from liver or heart tissue samples (30 mg) using lysis buffer. Total protein concentration was determined using a BCA protein assay kit (Thermo Fisher Scientific, USA). Equal amounts of protein from each sample were separated on 10–12% SDS-PAGE gels and transferred to PVDF membranes. Membranes were blocked with quick blocking buffer for 30 min, then incubated with anti-PAH primary antibody (1:1000 dilution) overnight at 4 °C. After washing, membranes were incubated with a secondary antibody for 1 h at 37 °C. Protein bands were visualized using an Odyssey infrared imaging system (JS-1070, Shanghai Peiqing Science & Technology Co., Ltd, China). Band intensities were quantified using ImageJ software.
# DOX-induced CHF rats [7] = test: Oxidative stress in heart and liver tissue (SOD, MDA, ROS, PTGS2); type: in vivo, rat; conditions: experiment II, co-treatment with DOX
# Procedure: as §2, with “Immunofluorescence staining was performed on tissue sections to detect phenylalanine hydroxylase (PAH), prostaglandin-endoperoxide synthase 2 (PTGS2), and reactive oxygen species (ROS). Primary antibodies against PAH and PTGS2 were used, while ROS was detected using the DCFH-DA probe. Nuclei were counterstained with DAPI. Images were captured using a fluorescence microscope. Serum” for “Serum”
# [8] = experiment II, co-treatment vs DOX group
# Chain of Phenylalanine hydroxylase (PAH) protein (P00439 whole entry): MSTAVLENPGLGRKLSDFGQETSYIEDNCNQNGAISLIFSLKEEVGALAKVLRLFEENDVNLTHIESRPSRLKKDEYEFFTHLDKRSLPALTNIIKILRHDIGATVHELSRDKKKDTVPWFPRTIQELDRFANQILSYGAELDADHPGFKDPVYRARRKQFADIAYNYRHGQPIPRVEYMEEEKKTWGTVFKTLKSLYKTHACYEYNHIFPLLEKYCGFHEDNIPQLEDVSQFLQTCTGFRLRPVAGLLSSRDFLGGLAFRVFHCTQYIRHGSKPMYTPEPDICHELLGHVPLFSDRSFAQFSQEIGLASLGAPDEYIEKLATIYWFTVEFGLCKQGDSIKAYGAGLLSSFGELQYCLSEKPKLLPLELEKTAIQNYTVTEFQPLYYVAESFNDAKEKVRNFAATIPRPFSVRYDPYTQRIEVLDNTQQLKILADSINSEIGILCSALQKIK
compound,measurement,setting,value
COc1ccc(/C=C/C(=O)O)cc1O [Isoferulic acid],non-cytoxic concentration,AML12 cells; AML12 cells,5 to 20 µM
COc1ccc(-c2coc3cc(O)ccc3c2=O)cc1 [Formononetin],non-cytoxic concentration,AML12 cells; AML12 cells,5 to 20 µM
COc1ccc(-c2coc3cc(O[C@@H]4O[C@H](CO)[C@@H](O)[C@H](O)[C@H]4O)ccc3c2=O)cc1O [Calycosin-7-O-β-D-glucoside],non-cytoxic concentration,AML12 cells,5 to 20 µM
"CCOC(=O)[C@H](CCc1ccccc1)N[C@@H](C)C(=O)N1CCC[C@H]1C(=O)O [ENP, Enalapril]",body weight,Rat body weight,partially restored
same,serum ALT and AST levels,"DOX-induced CHF rats [1]; treated groups vs DOX group, experiment I",markedly reduced
same,TUNEL-positive cardiomyocytes,[2]; treated groups vs DOX group,reduction
same,LVEF and LVFS,"[3]; DOX + ENP 1.8 mg/kg vs DOX group, p < 0.001",significantly higher
C[C@@H]1C[C@H]2O[C@@]3(O[C@@H]2C(C)(C)O)[C@H](O)[C@@]2(C)[C@@H]4CC[C@H]5C(C)(C)[C@@H](O[C@@H]6OC[C@@H](O)[C@H](O)[C@H]6O)CC[C@@]56C[C@@]46CC[C@]2(C)[C@@H]13 [Cimigenol xyloside],non-cytoxic concentration,AML12 cells; AML12 cells,5 to 20 µM
COc1ccc(-c2coc3cc(O)ccc3c2=O)cc1O [Calycosin],non-cytoxic concentration,AML12 cells; AML12 cells,5 to 20 µM
O=c1c(-c2ccc(O)cc2)coc2cc(O)ccc12 [Daidzein],non-cytoxic concentration,AML12 cells; mouse,5 to 20 µM
"C[C@H](O)[C@H](O)[C@H]1CNc2nc(N)[nH]c(=O)c2N1 [BH4, tetrahydrobiopterin]",mitochondrial ultrastructure of heart (electron microscopy),heart tissues,reversed
same,"DOX-induced increases in serum levels of BNP, CK, LDH, ALT and AST",DOX-induced CHF rats [1]; [8],significantly inhibited
same,phenylalanine levels in AML12 cells increased by DOX,[4],markedly decreased
same,non-cytoxic concentration,AML12 cells; mouse,5 to 20 µM
same,serum phenylalanine concentration,phenylalanine metabolism,46.9791 µM
same,DOX-induced cardiac injury and collagen accumulation (H&E and Masson),[2]; [8],ameliorated
same,LVEF and LVFS / DOX-induced cardiac dysfunction,"[3]; experiment II, DOX + Phe 280 mg/kg, BH4 14 mg/kg or SXT 16 g/kg vs DOX group",partially alleviated
same,Kd,[5],10.7 µM
same,PAH expression in heart tissue,[6],decreased
same,PAH expression in liver tissue,[6],increased
same,ROS production and PTGS2 expression in the heart,DOX-induced CHF rats [7],effectively attenuated
